Assay results published in patent US6610324B2, “Flupirtine in the treatment of fibromyalgia and related conditions” (The McLean Hospital Corporation, priority 1999, dated 2003).

Experiments:
[1] = cited from earlier work
[2] = test system: patients with fibromyalgia; assay: Flupirtine treatment of patients with fibromyalgia; assay type: in vivo
From the text: Flupirtine is an analgesic that has been used in Europe to treat the pain associated with surgery, cancer, trauma, and liver disease. It acts via the central nervous system through non-opite pain pathways, possibly involving the thalamus or spinal pain pathways.

[3] = in some, but not all, studies; cited from earlier work

CCOC(=O)Nc1ccc(NCc2ccc(F)cc2)nc1N [flupirtine, 2-amino-3-carbethoxyamino-6-(4-fluorobenzylamino)-pyridine]
withdrawal symptoms ([1]; abrupt discontinuation of administration): does not produce withdrawal symptoms | sedation ([1]; compared with opiate drugs): less sedating than opiate drugs | addiction and abuse ([1]; compared with opiates, no reports of abuse): not addictive | tolerance to analgesic effects ([1]; human, in vivo): do not acquire a tolerance | reported side effects ([1]; relatively safe at dosages lower than 600 mg per day): dizziness, drowsiness, pruritus, dry mouth, and, less frequently, nausea, depression, sleep disturbance, and headache | cardiovascular side effects ([1]; unlike opiates): not associated with cardiovascular side effects | muscle relaxant properties ([1]; unlike opiates): exhibits muscle relaxant properties | analgesic action compared with opiates ([2]; patients with fibromyalgia and related conditions): roughly comparable to the effect produced by opiates | effect on chronic and severe body pain ([2]; some patients with fibromyalgia, also where high doses of opiates, NSAIDs and placquenil fail): completely eliminating the chronic and severe body pain | effectiveness in relieving pain compared with opiates [3]: as effective as opiates
